In patent US20260021103A1, “IKZF2 AND CK1-ALPHA DEGRADING COMPOUNDS AND USES THEREOF” (President and Fellows of Harvard College, priority 2022, published 2026):

Experiments:
Format in all cases: cell-based
IKZF1 = target: T1, IKZF1 (Homo sapiens, UniProt Q13422+Q96SW2); assay: Flow cytometry for measuring degradation, HEK293T GFP-POI reporter cells (IKZF1); details: for IKZF1% degradation at 100 nM / IKZF1% degradation at 1 μM: 24 h, HEK293T GFP reporter
T1 construct: expressed in transfected cells; host or cells: HEK293T (lentiviral transduction, puromycin selection, FACS sorting)

IKZF2 = target: T2, IKZF2 (Homo sapiens, UniProt Q96SW2+Q9UKS7); assay: Flow cytometry for measuring degradation, HEK293T GFP-POI reporter cells (IKZF2); details: for IKZF2% degradation at 100 nM / IKZF2% degradation at 1 μM: 24 h, HEK293T GFP reporter
T2 construct: expressed in transfected cells; host or cells: HEK293T (lentiviral transduction, puromycin selection, FACS sorting)

CK1α = target: T3, CK1α (Homo sapiens, UniProt P48729+Q96SW2); assay: Flow cytometry for measuring degradation, HEK293T GFP-POI reporter cells (CK1α); details: for CK1α % degradation at 100 nM / CK1α % degradation at 1 μM: 24 h, HEK293T GFP reporter
T3 construct: expressed in transfected cells; host or cells: HEK293T (lentiviral transduction, puromycin selection, FACS sorting)

GSPT1 = GSPT1 (Homo sapiens, UniProt P15170+Q96SW2); assay: Flow cytometry for measuring degradation, HEK293T GFP-POI reporter cells (GSPT1); set-up: expressed in transfected cells; host or cells: HEK293T; details: for GSPT1% degradation at 100 nM / GSPT1% degradation at 1 μM: 24 h, HEK293T GFP reporter
Chain of GSPT1 (P15170 whole entry): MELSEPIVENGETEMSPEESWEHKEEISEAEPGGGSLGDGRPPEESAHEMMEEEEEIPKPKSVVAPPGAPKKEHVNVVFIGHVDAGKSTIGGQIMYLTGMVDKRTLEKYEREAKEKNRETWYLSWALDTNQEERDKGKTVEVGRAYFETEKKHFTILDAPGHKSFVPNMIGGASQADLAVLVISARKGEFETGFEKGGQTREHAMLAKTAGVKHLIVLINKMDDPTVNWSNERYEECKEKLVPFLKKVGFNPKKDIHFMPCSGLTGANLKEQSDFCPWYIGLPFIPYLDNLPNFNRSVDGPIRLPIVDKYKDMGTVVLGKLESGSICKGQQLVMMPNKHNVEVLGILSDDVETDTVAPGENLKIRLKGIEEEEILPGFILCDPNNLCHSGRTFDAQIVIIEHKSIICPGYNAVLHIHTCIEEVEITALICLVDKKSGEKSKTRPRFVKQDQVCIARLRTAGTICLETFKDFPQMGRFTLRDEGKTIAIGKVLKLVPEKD
Chain of GSPT1 (Q96SW2 whole entry): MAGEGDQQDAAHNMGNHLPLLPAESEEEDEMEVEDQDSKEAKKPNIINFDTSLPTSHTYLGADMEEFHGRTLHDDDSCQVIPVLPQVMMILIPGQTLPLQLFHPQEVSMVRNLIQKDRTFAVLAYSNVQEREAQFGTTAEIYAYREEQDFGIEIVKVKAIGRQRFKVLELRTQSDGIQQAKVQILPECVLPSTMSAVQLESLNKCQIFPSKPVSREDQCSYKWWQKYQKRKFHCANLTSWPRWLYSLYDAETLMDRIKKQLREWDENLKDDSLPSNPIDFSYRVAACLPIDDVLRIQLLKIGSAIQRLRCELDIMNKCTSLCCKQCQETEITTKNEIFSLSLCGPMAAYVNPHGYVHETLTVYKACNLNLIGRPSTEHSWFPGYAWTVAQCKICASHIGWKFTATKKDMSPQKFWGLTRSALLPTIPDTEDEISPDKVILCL
Chain of GSPT1 (Q16531 whole entry partner): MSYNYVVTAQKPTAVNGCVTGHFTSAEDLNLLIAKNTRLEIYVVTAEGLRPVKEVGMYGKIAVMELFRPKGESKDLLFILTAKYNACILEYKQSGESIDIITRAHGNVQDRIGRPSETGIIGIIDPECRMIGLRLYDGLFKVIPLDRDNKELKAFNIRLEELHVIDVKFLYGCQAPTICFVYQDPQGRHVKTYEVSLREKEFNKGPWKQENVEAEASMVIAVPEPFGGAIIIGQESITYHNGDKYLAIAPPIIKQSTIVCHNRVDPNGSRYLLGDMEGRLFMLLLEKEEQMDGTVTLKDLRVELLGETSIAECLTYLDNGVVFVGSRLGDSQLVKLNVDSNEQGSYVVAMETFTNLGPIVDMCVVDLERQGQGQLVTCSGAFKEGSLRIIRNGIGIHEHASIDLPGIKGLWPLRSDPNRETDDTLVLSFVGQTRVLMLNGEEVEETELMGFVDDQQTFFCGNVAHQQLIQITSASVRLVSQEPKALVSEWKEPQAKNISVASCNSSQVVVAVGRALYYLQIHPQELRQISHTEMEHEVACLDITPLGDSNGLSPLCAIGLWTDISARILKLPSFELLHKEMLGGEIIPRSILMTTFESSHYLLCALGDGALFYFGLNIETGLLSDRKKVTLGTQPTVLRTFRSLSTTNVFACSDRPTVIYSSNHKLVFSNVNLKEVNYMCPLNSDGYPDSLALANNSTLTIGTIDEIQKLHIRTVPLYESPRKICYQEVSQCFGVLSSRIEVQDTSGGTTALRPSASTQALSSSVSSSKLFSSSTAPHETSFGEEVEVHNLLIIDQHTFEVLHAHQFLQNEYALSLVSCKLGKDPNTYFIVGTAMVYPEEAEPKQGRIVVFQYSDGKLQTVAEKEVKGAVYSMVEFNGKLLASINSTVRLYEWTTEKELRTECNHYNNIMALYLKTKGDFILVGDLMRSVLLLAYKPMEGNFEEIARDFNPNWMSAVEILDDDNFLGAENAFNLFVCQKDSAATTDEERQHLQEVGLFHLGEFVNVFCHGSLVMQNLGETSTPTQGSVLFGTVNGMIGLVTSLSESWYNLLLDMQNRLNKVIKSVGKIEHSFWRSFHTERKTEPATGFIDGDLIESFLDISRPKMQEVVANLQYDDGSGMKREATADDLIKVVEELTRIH

T1 sequence (Q13422 whole entry): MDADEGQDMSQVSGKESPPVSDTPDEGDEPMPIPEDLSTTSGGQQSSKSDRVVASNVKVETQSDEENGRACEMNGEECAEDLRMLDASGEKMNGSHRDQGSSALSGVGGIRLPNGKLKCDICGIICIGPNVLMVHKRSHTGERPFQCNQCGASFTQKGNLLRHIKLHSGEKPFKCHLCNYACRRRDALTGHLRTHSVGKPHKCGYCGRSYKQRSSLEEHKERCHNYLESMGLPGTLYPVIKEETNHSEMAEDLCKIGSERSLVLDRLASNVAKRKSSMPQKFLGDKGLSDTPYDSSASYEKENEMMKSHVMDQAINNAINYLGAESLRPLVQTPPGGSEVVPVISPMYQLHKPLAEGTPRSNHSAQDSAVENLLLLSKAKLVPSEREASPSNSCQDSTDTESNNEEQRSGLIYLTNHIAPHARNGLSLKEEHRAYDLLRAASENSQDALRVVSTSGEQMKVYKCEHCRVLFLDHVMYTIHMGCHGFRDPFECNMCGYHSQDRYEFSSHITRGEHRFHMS
T1 sequence (Q96SW2 whole entry): as the sequence (Q96SW2 whole entry) above
T1 sequence (Q16531 whole entry partner): as the sequence (Q16531 whole entry partner) above
T2 sequence (Q9UKS7 whole entry): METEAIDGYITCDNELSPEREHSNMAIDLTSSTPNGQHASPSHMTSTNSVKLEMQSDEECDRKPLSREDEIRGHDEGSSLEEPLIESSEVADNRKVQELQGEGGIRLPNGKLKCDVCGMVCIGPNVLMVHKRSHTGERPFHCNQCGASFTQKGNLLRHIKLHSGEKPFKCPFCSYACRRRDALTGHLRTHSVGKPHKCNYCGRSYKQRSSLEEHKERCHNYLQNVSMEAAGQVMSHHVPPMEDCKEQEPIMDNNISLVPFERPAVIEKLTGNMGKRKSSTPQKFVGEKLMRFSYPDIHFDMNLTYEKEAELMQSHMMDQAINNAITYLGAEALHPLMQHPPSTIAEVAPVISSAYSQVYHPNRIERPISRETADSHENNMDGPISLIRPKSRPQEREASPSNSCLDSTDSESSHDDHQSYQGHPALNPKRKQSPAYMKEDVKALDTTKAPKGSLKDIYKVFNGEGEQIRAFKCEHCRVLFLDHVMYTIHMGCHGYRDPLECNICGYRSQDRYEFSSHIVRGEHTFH
T2 sequence (Q96SW2 whole entry): as the sequence (Q96SW2 whole entry) above
T2 sequence (Q16531 whole entry partner): as the sequence (Q16531 whole entry partner) above
T3 sequence (P48729 whole entry): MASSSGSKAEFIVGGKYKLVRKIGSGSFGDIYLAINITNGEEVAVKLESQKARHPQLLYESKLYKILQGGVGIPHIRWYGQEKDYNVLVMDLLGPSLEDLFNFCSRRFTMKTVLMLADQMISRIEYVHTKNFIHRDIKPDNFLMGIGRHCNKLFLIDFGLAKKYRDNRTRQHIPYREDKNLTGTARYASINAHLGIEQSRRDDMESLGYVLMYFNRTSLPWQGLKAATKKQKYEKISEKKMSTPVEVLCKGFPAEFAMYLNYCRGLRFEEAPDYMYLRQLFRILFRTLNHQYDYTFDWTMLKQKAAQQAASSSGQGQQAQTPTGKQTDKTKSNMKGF
T3 sequence (Q96SW2 whole entry): as the sequence (Q96SW2 whole entry) above
T3 sequence (Q16531 whole entry partner): as the sequence (Q16531 whole entry partner) above

O=C1CCC(N2Cc3cc(NC(=O)c4ccc5c(c4)OCCO5)ccc3C2=O)C(=O)N1 (stereo not drawn) [DEG-53, N-(2-(2,6-dioxopiperidin-3-yl)-1-oxoisoindolin-5-yl)-2,3-dihydrobenzo[b]dioxine-6-carboxamide]
IKZF1% degradation at 100 nM (IKZF1): 9.3 ± 0.8% | IKZF1% degradation at 1 μM (IKZF1): 8.8 ± 1.6% | IKZF2% degradation at 100 nM (IKZF2): 38.5 ± 0.2% | IKZF2% degradation at 1 μM (IKZF2): 76.5 ± 0.7% | CK1α % degradation at 100 nM (CK1α): 36.2 ± 4.5% | CK1α % degradation at 1 μM (CK1α): 55.4 ± 3.9% | GSPT1% degradation at 100 nM (GSPT1): 5 ± 1.4% | GSPT1% degradation at 1 μM (GSPT1): 2.4 ± 0.9%

O=C1CCC(N2Cc3cc(NC(=O)C4=Cc5ccc(C(F)(F)F)cc5OC4)ccc3C2=O)C(=O)N1 (stereo not drawn) [DEG-81, N-(2-(2,6-dioxopiperidin-3-yl)-1-oxoisoindolin-5-yl)-7-(trifluoromethyl)-2H-chromene-3-carboxamide]
IKZF1% degradation at 100 nM (IKZF1): 8 ± 0.5% | IKZF1% degradation at 1 μM (IKZF1): 17.4 ± 3.3% | IKZF2% degradation at 100 nM (IKZF2): 75.1 ± 0.5% | IKZF2% degradation at 1 μM (IKZF2): 91.8 ± 0.1% | CK1α % degradation at 100 nM (CK1α): 66.3 ± 2% | CK1α % degradation at 1 μM (CK1α): 72 ± 0.3% | GSPT1% degradation at 100 nM (GSPT1): 2.8 ± 0.8% | GSPT1% degradation at 1 μM (GSPT1): 11.9 ± 1.9%

COc1cc(Br)cc2c1OCC(C(=O)Nc1ccc3c(c1)CN(C1CCC(=O)NC1=O)C3=O)=C2 (stereo not drawn) [DEG-84, 6-bromo-N-(2-(2,6-dioxopiperidin-3-yl)-1-oxoisoindolin-5-yl)-8-methoxy-2H-chromene-3-carboxamide]
IKZF1% degradation at 100 nM (IKZF1): 12.6 ± 0.5% | IKZF1% degradation at 1 μM (IKZF1): 26.1 ± 0.5% | IKZF2% degradation at 100 nM (IKZF2): 74.4 ± 0.4% | IKZF2% degradation at 1 μM (IKZF2): 87.8 ± 0.2% | CK1α % degradation at 100 nM (CK1α): 64.7 ± 0.1% | CK1α % degradation at 1 μM (CK1α): 68 ± 1.8% | GSPT1% degradation at 100 nM (GSPT1): 1.6 ± 1.1% | GSPT1% degradation at 1 μM (GSPT1): 4.1 ± 2.6%

CN1C(=O)COc2cc(C(=O)Nc3ccc4c(c3)CN(C3CCC(=O)NC3=O)C4=O)ccc21 (stereo not drawn) [DEG-94, N-(2-(2,6-dioxopiperidin-3-yl)-1-oxoisoindolin-5-yl)-4-methyl-3-oxo-3,4-dihydro-2H-benzo[b][1,4]oxazine-7-carboxamide]
IKZF1% degradation at 100 nM (IKZF1): 8.7% | IKZF1% degradation at 1 μM (IKZF1): 20.8% | Dmax (IKZF1; HEK-293T, Table 3): 30.5% | IKZF2% degradation at 100 nM (IKZF2): 51.8% | IKZF2% degradation at 1 μM (IKZF2): 85.2% | Dmax (IKZF2; HEK-293T, Table 3): 92.8% | DC50 (IKZF2; Table 3): 78.8 nM | CK1α % degradation at 100 nM (CK1α): 51.3% | CK1α % degradation at 1 μM (CK1α): 71.5% | Dmax (CK1α; CK1, Table 3, read-out: Dmax CK1a (%)): 76.7% | DC50 (CK1α; Table 3, read-out: DC50 CK1a): 42.5 nM | GSPT1% degradation at 100 nM (GSPT1): 9.3% | GSPT1% degradation at 1 μM (GSPT1): 13.2% | Dmax (GSPT1; HEK-293T, Table 3): 13.7%

COc1ccc2c(c1)C=C(C(=O)Nc1ccc3c(c1)CN(C1CCC(=O)NC1=O)C3=O)CO2 (stereo not drawn) [DEG-78, N-(2-(2,6-dioxopiperidin-3-yl)-1-oxoisoindolin-5-yl)-6-methoxy-2H-chromene-3-carboxamide]
IKZF1% degradation at 100 nM (IKZF1): 15.7 ± 1.1% | IKZF1% degradation at 1 μM (IKZF1): 33.9 ± 0.9% | IKZF2% degradation at 100 nM (IKZF2): 75 ± 0.8% | IKZF2% degradation at 1 μM (IKZF2): 90.3 ± 0% | CK1α % degradation at 100 nM (CK1α): 65.5 ± 1.3% | CK1α % degradation at 1 μM (CK1α): 69.5 ± 1.4% | GSPT1% degradation at 100 nM (GSPT1): 9.2 ± 0.8% | GSPT1% degradation at 1 μM (GSPT1): 14.4 ± 0.5%

O=C1CCC(N2Cc3cc(NC(=O)c4ccc5c(c4)OCO5)ccc3C2=O)C(=O)N1 (stereo not drawn) [DEG-54, N-(2-(2,6-dioxopiperidin-3-yl)-1-oxoisoindolin-5-yl)benzo[d][1,3]dioxole-5-carboxamide]
IKZF1% degradation at 100 nM (IKZF1): 7.4 ± 0.8% | IKZF1% degradation at 1 μM (IKZF1): 9.7 ± 1.4% | IKZF2% degradation at 100 nM (IKZF2): 49.2 ± 0.2% | IKZF2% degradation at 1 μM (IKZF2): 84.1 ± 0.3% | CK1α % degradation at 100 nM (CK1α): 33.5 ± 10% | CK1α % degradation at 1 μM (CK1α): 57.6 ± 3.5% | GSPT1% degradation at 100 nM (GSPT1): 5.2 ± 1.5% | GSPT1% degradation at 1 μM (GSPT1): 3.3 ± 1.7%

O=C1CCC(N2Cc3cc(NC(=O)Cc4ccc5ccccc5c4)ccc3C2=O)C(=O)N1 (stereo not drawn) [DEG-71, N-(2-(2,6-dioxopiperidin-3-yl)-1-oxoisoindolin-5-yl)-2-(naphthalen-2-yl)acetamide]
IKZF1% degradation at 100 nM (IKZF1): 98.5 ± 0.1% | IKZF1% degradation at 1 μM (IKZF1): 98.4 ± 0.1% | IKZF2% degradation at 100 nM (IKZF2): 93.8 ± 0.5% | IKZF2% degradation at 1 μM (IKZF2): 88.5 ± 3% | CK1α % degradation at 100 nM (CK1α): −190.2 ± 2.8% | CK1α % degradation at 1 μM (CK1α): −153 ± 2.3% | GSPT1% degradation at 100 nM (GSPT1): 63.1 ± 0.4% | GSPT1% degradation at 1 μM (GSPT1): 69.4 ± 0.6%

O=C1CCC(N2Cc3cc(NC(=O)C4=Cc5ccc(OC(F)(F)F)cc5OC4)ccc3C2=O)C(=O)N1 (stereo not drawn) [DEG-82, N-(2-(2,6-dioxopiperidin-3-yl)-1-oxoisoindolin-5-yl)-7-(trifluoromethoxy)-2H-chromene-3-carboxamide]
IKZF1% degradation at 100 nM (IKZF1): 10.6 ± 1.2% | IKZF1% degradation at 1 μM (IKZF1): 19.9 ± 0.3% | IKZF2% degradation at 100 nM (IKZF2): 85.4 ± 0% | IKZF2% degradation at 1 μM (IKZF2): 93.3 ± 0.1% | CK1α % degradation at 100 nM (CK1α): 58 ± 2.2% | CK1α % degradation at 1 μM (CK1α): 62.7 ± 1.4% | GSPT1% degradation at 100 nM (GSPT1): 6.1 ± 0.3% | GSPT1% degradation at 1 μM (GSPT1): 12.3 ± 0.9%

O=C1CCC(N2Cc3cc(NC(=O)C4=Cc5cc(Br)cc(Br)c5OC4)ccc3C2=O)C(=O)N1 (stereo not drawn) [DEG-86, 6,8-dibromo-N-(2-(2,6-dioxopiperidin-3-yl)-1-oxoisoindolin-5-yl)-2H-chromene-3-carboxamide]
IKZF1% degradation at 100 nM (IKZF1): 12.3 ± 0.9% | IKZF1% degradation at 1 μM (IKZF1): 22.6 ± 0.5% | IKZF2% degradation at 100 nM (IKZF2): 48.7 ± 1.1% | IKZF2% degradation at 1 μM (IKZF2): 62.6 ± 0.5% | CK1α % degradation at 100 nM (CK1α): 46.5 ± 2.5% | CK1α % degradation at 1 μM (CK1α): 54.7 ± 1.2% | GSPT1% degradation at 100 nM (GSPT1): 5.3 ± 2% | GSPT1% degradation at 1 μM (GSPT1): 9.2 ± 0.7%

COc1cc(Oc2ccccc2)ccc1C(=O)Nc1ccc2c(c1)CN(C1CCC(=O)NC1=O)C2=O (stereo not drawn) [DEG-75, N-(2-(2,6-dioxopiperidin-3-yl)-1-oxoisoindolin-5-yl)-2-methoxy-4-phenoxybenzamide]
IKZF1% degradation at 100 nM (IKZF1): 2.4 ± 1.1% | IKZF1% degradation at 1 μM (IKZF1): 7 ± 0.4% | IKZF2% degradation at 100 nM (IKZF2): 54.6 ± 1.1% | IKZF2% degradation at 1 μM (IKZF2): 83.3 ± 0.3% | CK1α % degradation at 100 nM (CK1α): 48.1 ± 2.2% | CK1α % degradation at 1 μM (CK1α): 64 ± 1.5% | GSPT1% degradation at 100 nM (GSPT1): 0.4 ± 1.4% | GSPT1% degradation at 1 μM (GSPT1): 12.6 ± 1.2%

COc1ccc(Oc2ccc(C(=O)Nc3ccc4c(c3)CN(C3CCC(=O)NC3=O)C4=O)cc2)cc1 (stereo not drawn) [DEG-70, N-(2-(2,6-dioxopiperidin-3-yl)-1-oxoisoindolin-5-yl)-4-(4-methoxyphenoxy)benzamide]
IKZF1% degradation at 100 nM (IKZF1): 6.5 ± 1.4% | IKZF1% degradation at 1 μM (IKZF1): 16.2 ± 0.6% | IKZF2% degradation at 100 nM (IKZF2): 53.6 ± 0.6% | IKZF2% degradation at 1 μM (IKZF2): 84.5 ± 0.3% | CK1α % degradation at 100 nM (CK1α): 44.9 ± 3.4% | CK1α % degradation at 1 μM (CK1α): 55.8 ± 5.6% | GSPT1% degradation at 100 nM (GSPT1): 4.3 ± 1.1% | GSPT1% degradation at 1 μM (GSPT1): 4.8 ± 0.4%

O=C1CCC(N2Cc3cc(NC(=O)c4ccc5c(c4)CCCC5)ccc3C2=O)C(=O)N1 (stereo not drawn) [DEG-87, N-(2-(2,6-dioxopiperidin-3-yl)-1-oxoisoindolin-5-yl)-5,6,7,8-tetrahydronaphthalene-2-carboxamide]
IKZF1% degradation at 100 nM (IKZF1): 15.5 ± 1% | IKZF1% degradation at 1 μM (IKZF1): 27.2 ± 0.7% | IKZF2% degradation at 100 nM (IKZF2): 74 ± 0.5% | IKZF2% degradation at 1 μM (IKZF2): 89.1 ± 0.4% | CK1α % degradation at 100 nM (CK1α): 51.1 ± 1.2% | CK1α % degradation at 1 μM (CK1α): 56.9 ± 0.8% | GSPT1% degradation at 100 nM (GSPT1): 1.2 ± 2.5% | GSPT1% degradation at 1 μM (GSPT1): 4 ± 0.6%
